Experimental data published in patent publication US9238030B2, “Methods for treatment of diseases and disorders related to transducin β-like protein 1 (TBL1) activity, including myeloproliferative neoplasia and chronic myeloid leukemia” (Beta Cat Pharmaceuticals, LLC, priority 2011, dated 2016).

Tests used:
β-catenin [1] = test: Western blot, proteasomal degradation of β-catenin in AML cells (FIG. 6C); assay type: cell-based
Procedure: As one can see, there is less of β-catenin in the AML cells treated with 100 nM of Compound 1 for 8 hours as compared to non-treated AML cells. However, when 10 nM of Carfilzomib (CZ) (a proteasome inhibitor) were administered to the same AML cells, the amount of β-catenin increased.

UKE1 cells = test: Apoptosis of MPN cells, annexin V / TOPRO3 flow cytometry; assay type: cell-based
Procedure: (§1) Briefly, the cell lines HEL 92.1.7 (FIGS. 1A and 1C) and UKE1 (FIGS. 1B and 1D) were seeded in medium containing 10% FBS and penicillin/streptomycin. After 24 hours, the cells were treated with either: 1) Compound 1; or 2) Compound 1 in combination with TG101209 for 48 hours. At the end of treatment, cells were washed with 1×PBS and stained with annexin V and TOPRO3 iodide. The percentages of apoptotic cells were determined by flow cytometry.

HEL 92.1.7 cells [2] = test: as above; assay type: cell-based
Procedure: as §1

CD34+ MPN cells = test: Apoptosis of primary MPN cells isolated from patients; assay type: cell-based
Procedure: Briefly, the CD34+ cells isolated from bone marrow of MPN patients, were seeded in medium containing 10% FBS and penicillin/streptomycin. After 24 hours, the cells were treated with Compound 1 for 48 hours or Compound 1 in combination with TG101209. At the end of treatment, cells were washed with 1×PBS and stained with annexin V and TOPRO3 iodide. The percentages of apoptotic cells were determined by flow cytometry. Combination index (CI) was determined using the method of Chou-Talalay (Adv. Enzyme Regul. 22, 27-55).

[3] = molecular target: T1, binding of β-catenin to TBL1 (Homo sapiens, UniProt O60907); test: Staining of AML cells with anti-β-catenin antibody, anti-TBL1 antibody and DAPI (FIG. 6B); assay type: cell-based; conditions: 100 nM, 16 hours
T1 construct: endogenous in cells; host or cells: AML cells
T1 sequence (O60907 1-577): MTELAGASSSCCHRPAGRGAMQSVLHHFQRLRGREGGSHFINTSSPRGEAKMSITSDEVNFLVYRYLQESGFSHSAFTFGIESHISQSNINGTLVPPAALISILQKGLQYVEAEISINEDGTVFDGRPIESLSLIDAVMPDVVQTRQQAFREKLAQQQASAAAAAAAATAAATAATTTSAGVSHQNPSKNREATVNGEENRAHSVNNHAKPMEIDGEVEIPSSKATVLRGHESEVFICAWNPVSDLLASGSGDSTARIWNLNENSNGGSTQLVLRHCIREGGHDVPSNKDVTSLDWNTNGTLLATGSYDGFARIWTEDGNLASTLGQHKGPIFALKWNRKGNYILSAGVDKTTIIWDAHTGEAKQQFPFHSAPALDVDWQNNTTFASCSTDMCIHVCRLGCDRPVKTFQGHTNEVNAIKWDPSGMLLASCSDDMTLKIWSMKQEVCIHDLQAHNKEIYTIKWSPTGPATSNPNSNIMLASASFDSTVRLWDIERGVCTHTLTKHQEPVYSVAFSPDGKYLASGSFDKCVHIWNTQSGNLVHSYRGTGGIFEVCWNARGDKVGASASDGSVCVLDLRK
Procedure: FIG. 6B is a series of photographs of stained AML cells with and without prior administration of Compound 1. The top panel depicts control cells (without prior administration of Compound 1) and the bottom panel depicts AML cells following administration of 100 nM of Compound 1 for 16 hours. The cells were stained with the anti-β-catenin antibody, anti-TBL1 antibody, and DAPI nucleic acid stain. The photographs of TBL1 and anti-beta-catenin stains were also merged. […] Compare especially the top right photograph and the bottom right photograph.

K562 cells = test: Apoptosis of CML cells, annexin V / TOPRO3 flow cytometry; assay type: cell-based, human
Procedure: (§2) Briefly, cell lines K562 (human immortalized myelogenous leukemia line) and LAMA-84 (a human leucocytic cell line) were seeded in medium containing 10% FBS and penicillin/streptomycin. After 24 hours, the cells were treated with Compound 1 for 48 hours. At the end of the treatment, the cells were washed with 1×PBS and stained with annexin V and TOPRO3 iodide. The percentages of apoptotic cells were determined by flow cytometry.
as §1, with “K562” for “HEL 92.1.7 (FIGS. 1A”, “LAMA-84,” for “1C) and UKE1 (FIGS. 1B and 1D)”, “1 alone;” for “1;”, “2)” for “2) Compound 1”, “panobinostat and nilotinib” for “TG101209”

LAMA-84 cells = test: as above; assay type: cell-based, human
Procedure: as §2
as §1, with “K562” for “HEL 92.1.7 (FIGS. 1A”, “LAMA-84,” for “1C) and UKE1 (FIGS. 1B and 1D)”, “1 alone;” for “1;”, “2)” for “2) Compound 1”, “panobinostat and nilotinib” for “TG101209”

β-catenin [4] = test: β-catenin expression and nuclear localization, staining with anti-β-catenin antibody and DAPI; assay type: cell-based; conditions: CD34+ Primary FLT3-ITD AML cells, 100 nM, 16 hours
Source text: Briefly, CD34+ Primary AML cells, CD34+ Primary FLT3-ITD AML cells and CD34+ Normal cells were stained with anti-β-catenin antibody and DAPI nucleic acid stain. The photographs of these stains were also merged. The photographs of the stained cells are contained in FIG. 5A. As these photographs show, there is a lot of β-catenin expressed in both types of AML cells, and β-catenin is concentrated in nuclei of these cells.
As one can see, compared to control cells (i.e., not treated with Compound 1), this treatment leads to depletion of β-catenin expression and nuclear localization in AML cells.

[5] = test system: TCF reporter plasmid (TOP-FLASH); test: TOP-FLASH and FOP-FLASH luciferase activity in AML cells; assay type: cell-based; conditions: 20 nM, 50 nM, and 100 nM
Source text: FIG. 7A depicts a bar chart of TOP-FLASH and FOP-FLASH luciferase activity versus treatment of AML cells with different amounts of Compound 1.
TOP-FLASH is a Transfection grade T-cell factor (TCF) reporter plasmid containing two sets (with the second set in the reverse orientation) of three copies of the TCF binding site (wild type) upstream of the Thymidine Kinase (TK) minimal promoter and Luciferase open reading frame.
FOP-FLASH is a reporter plasmid containing mutated TCF binding sites is a negative control.
There was no reduction in FOP-FLASH (negative control).

[6] = test system: CD34+ Primary FLT3-ITD AML cells; test: % of non-viable cells, in vitro apoptosis; assay type: cell-based; conditions: various amounts
[7] = test system: CD34+ CD38-Lin-Primary AML cells; test: % of non-viable cells, in vitro apoptosis; assay type: cell-based; conditions: various amounts
β-catenin [8] = test: Western blot of AML cells (FIG. 5C); assay type: cell-based; conditions: 100 nM
HEL 92.1.7 cells [9] = test: Mouse model of human MPN, survival; assay type: in vivo, NOD-SCID mice; conditions: 15 or 20 mg/Kg b.i.w for three weeks via the tail vein; p<001
Procedure: Briefly, NOD-SCID mice were sub-lethally irradiated and HEL 92.1.7 cells were infused into the tail vein and MPN established. Mice were treated with 15 or 20 mg/Kg of Compound 1 administered b.i.w for three weeks via the tail vein. Animals were followed for survival after dosing stopped.

[10] = test system: β-catenin, c-MYC, Cyclin D1 and p21; test: Levels of β-catenin, c-MYC, Cyclin D1 and p21 in AML cells (FIG. 7C); assay type: cell-based; conditions: 100 nM
Procedure: FIG. 7C contains the bar chart of the effect of administering 100 nM of Compound 1 to AML cells on levels of β-catenin, c-MYC, Cyclin D1 and p21 (control).

[11] = test system: primary FLT3-ITD AML xenograft; test: Survival of NSG mice with primary FLT3-ITD AML xenograft; assay type: in vivo; conditions: 10 mg/kg, three weeks, twice per week intravenous infusion
Source text: Very similar results were obtained in NSG mice with primary FLT3-ITD AML xenograft.

β-catenin [12] = test: Western blot of primary AML cells (FIG. 6A); assay type: cell-based; conditions: 100 nM, 8 hours
[13] = test system: CD34+ Primary FLT3-WT AML cells; test: % of non-viable cells, in vitro apoptosis; assay type: cell-based; conditions: various amounts
OCI-AML3 xenograft cells = test: Survival of NSG mice with established AML by OCI-AML3 xenograft; assay type: in vivo; conditions: three weeks, twice per week tail vein infusion
[14] = test system: β-catenin at target gene promoters; test: chIP (Chromatin immunoprecipitation) analysis in AML cells; assay type: cell-based; conditions: 200 nM, 8 hours
Source text: FIG. 7B contains the bar chart of the results of chIP (Chromatin immunoprecipitation) analysis of the effect of treating AML cells with Compound 1.

[15] = in combination with Compound 1, 48 hours

CC(C)C[C@H](NC(=O)[C@H](CCc1ccccc1)NC(=O)CN1CCOCC1)C(=O)N[C@@H](Cc1ccccc1)C(=O)N[C@@H](CC(C)C)C(=O)[C@@]1(C)CO1 [Carfilzomib, reference compound]
amount of β-catenin (β-catenin [1]; 10 nM Carfilzomib administered to the same AML cells treated with Compound 1): increased

Cc1cnc(Nc2ccc(N3CCN(C)CC3)cc2)nc1Nc1cccc(S(=O)(=O)NC(C)(C)C)c1 [TG101209, N-tert-butyl-3-[[5-methyl-2-[4-(4-methylpiperazin-1-yl)anilino]pyrimidin-4-yl]amino]benzenesulfonamide, reference compound]
effect on apoptosis induced by Compound 1, UKE1 cells (UKE1 cells; [15]): enhanced | effect on apoptosis induced by Compound 1, HEL 92.1.7 cells (HEL 92.1.7 cells [2]; [15]): enhanced | effect on apoptosis induced by Compound 1, CD34+ MPN cells (CD34+ MPN cells; in combination with Compound 1): enhanced

C[C@@H]1C[C@H](C)CN(S(=O)(=O)c2ccc3c(c2)C(=NO)c2cc(S(=O)(=O)N4C[C@H](C)C[C@H](C)C4)ccc2C3=NO)C1 [Compound 1]
binding of β-catenin to TBL1, staining [3]: severely disrupted | levels of β-catenin, staining [3]: depleted | effect at S or G2/M phases of the cell cycle (K562 cells; K562, 48 hours): did not have significant effect | number of apoptotic cells at G0/G1 phase of the cell cycle (K562 cells; K562, 48 hours): increased | number of apoptotic cells (K562 cells; K562, Compound 1 alone, 48 hours): increased | effect at S or G2/M phases of the cell cycle (LAMA-84 cells; LAMA-84, 48 hours): did not have significant effect | number of apoptotic cells at G0/G1 phase of the cell cycle (LAMA-84 cells; LAMA-84, 48 hours): increased | number of apoptotic cells (LAMA-84 cells; LAMA-84, Compound 1 alone, 48 hours): increased | β-catenin expression and nuclear localization (β-catenin [4]): depletion | FOP-FLASH luciferase activity (negative control) [5]: no reduction | TOP-FLASH luciferase activity (expression of β-catenin as measured by this luciferase assay) [5]: much lower expression | in vitro apoptosis (% of non-viable cells) [6]: significantly induced in vitro apoptosis | fate of β-catenin (β-catenin [1]; AML cells): proteasomal degradation | β-catenin compared to non-treated AML cells, Western blot (β-catenin [1]; AML cells, 100 nM, 8 hours): less | apoptosis of UKE1 cells (UKE1 cells; Compound 1 alone, 48 hours): induced apoptosis | apoptosis of HEL 92.1.7 cells (HEL 92.1.7 cells [2]; Compound 1 alone, 48 hours): induced apoptosis | in vitro apoptosis (% of non-viable cells) [7]: significantly induced in vitro apoptosis | Survivin level, Western blot (β-catenin [8]): about the same levels | TBL1 level, Western blot (β-catenin [8]): about the same levels | c-MYC level, Western blot (β-catenin [8]): about the same levels | β-actin level, Western blot (β-catenin [8]): about the same levels | β-catenin expression, Western blot (β-catenin [8]): less | survival compared to the control (HEL 92.1.7 cells [9]): significantly improved survival | apoptosis of CD34+ MPN cells (CD34+ MPN cells; 100 nM or above, 48 hours): induced apoptosis | expression of Cyclin D1 [10]: lower expression | expression of c-MYC [10]: lower expression | expression of p21 [10]: much higher expression | expression of β-catenin [10]: lower expression | % survival compared to the control mice [11]: dramatic increase | β-catenin, Western blot (β-catenin [12]): less | in vitro apoptosis (% of non-viable cells) [13]: significantly induced in vitro apoptosis | survival compared to the control mice (OCI-AML3 xenograft cells; 5 mg/kg): improved survival | survival compared to the control mice (OCI-AML3 xenograft cells; 10 mg/kg): improved survival | amount of promoter DNA of CCND1, chIP [14]: reduced amount | amount of promoter DNA of c-MYC, chIP [14]: reduced amount | amount of promoter DNA of survivin, chIP [14]: reduced amount

Cc1cn(-c2cc(NC(=O)c3ccc(C)c(Nc4nccc(-c5cccnc5)n4)c3)cc(C(F)(F)F)c2)cn1 [nilotinib, reference compound]
effect on apoptosis induced by Compound 1 (K562 cells; K562, in combination with Compound 1, 48 hours): enhanced | effect on apoptosis induced by Compound 1 (LAMA-84 cells; LAMA-84, in combination with Compound 1, 48 hours): enhanced
